Article PMC11207149, “Novel hematopoietic progenitor kinase 1 inhibitor KHK-6 enhances T-cell activation” (PLOS ONE, 2024)

Molecular target: T1, hematopoietic progenitor kinase 1 (HPK1) (Homo sapiens, UniProt Q92918)
T1 construct: gene MAP4K1
Experiment: radiometric [γ-33P]-ATP kinase assay (Eurofins KinaseProfiler), recombinant human HPK1, MBP substrate
Type: biochemical

T1 sequence (Q92918 whole entry): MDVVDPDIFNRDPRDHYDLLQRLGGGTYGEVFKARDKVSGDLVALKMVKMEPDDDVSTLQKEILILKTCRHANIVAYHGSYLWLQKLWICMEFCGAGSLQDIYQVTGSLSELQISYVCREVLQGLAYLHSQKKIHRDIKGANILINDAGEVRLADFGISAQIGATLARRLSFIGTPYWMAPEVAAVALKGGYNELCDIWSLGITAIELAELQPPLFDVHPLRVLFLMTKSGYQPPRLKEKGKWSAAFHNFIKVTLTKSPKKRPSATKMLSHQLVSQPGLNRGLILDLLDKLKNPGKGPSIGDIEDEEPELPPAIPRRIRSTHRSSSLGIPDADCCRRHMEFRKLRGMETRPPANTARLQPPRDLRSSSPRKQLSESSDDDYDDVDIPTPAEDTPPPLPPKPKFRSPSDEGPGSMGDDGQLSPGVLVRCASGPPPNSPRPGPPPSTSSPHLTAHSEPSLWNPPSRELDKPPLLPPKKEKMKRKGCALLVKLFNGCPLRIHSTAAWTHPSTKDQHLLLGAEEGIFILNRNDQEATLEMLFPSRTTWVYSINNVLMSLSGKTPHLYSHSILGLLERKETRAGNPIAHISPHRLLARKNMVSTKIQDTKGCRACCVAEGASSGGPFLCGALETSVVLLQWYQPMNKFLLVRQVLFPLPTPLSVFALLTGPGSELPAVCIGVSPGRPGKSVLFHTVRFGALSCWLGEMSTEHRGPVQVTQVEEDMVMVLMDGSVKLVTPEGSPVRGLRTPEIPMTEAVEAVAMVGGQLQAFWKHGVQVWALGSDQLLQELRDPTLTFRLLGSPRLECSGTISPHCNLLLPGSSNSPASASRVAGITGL

## CC(C)S(=O)(=O)c1ccccc1Nc1nc(Nc2ccc3c(c2)C(C)(C)OC3=O)ncc1Cl [KHK-6]
  IC50: 20 nM
